Measurements: ChEMBL document CHEMBL6121016, “Design, Synthesis, and Biological Evaluation of 1,3,4-Thiadiazole Derivatives as Novel Potent Peptide Deformylase Inhibitors for Combating Drug-Resistant Gram-Positive and -Negative Bacteria” (J Med Chem, 2025)
Values after ≈ are worked out from the molar mass of the structure shown.

Assays:
[1] = test system: Staphylococcus aureus; experiment: Antibacterial activity against methicillin-resistant Staphylococcus aureus ATCC 33591 after 16 to 18 hrs by broth microdilution method; format: functional; settings: time 16-18 hrs
[2] = test system: Staphylococcus aureus; experiment: Antibacterial activity against methicillin-resistant Staphylococcus aureus ATCC 43300 after 16 to 18 hrs by broth microdilution method; format: functional; settings: time 16-18 hrs
[3] = test system: Staphylococcus aureus; experiment: Antibacterial activity against methicillin-resistant Staphylococcus aureus Bio-090770 after 16 to 18 hrs by broth microdilution method; format: functional; settings: time 16-18 hrs
[4] = test system: Staphylococcus aureus; experiment: Antibacterial activity against methicillin-susceptible Staphylococcus aureus ATCC 29213 after 16 to 18 hrs by broth microdilution method; format: functional; settings: time 16-18 hrs
[5] = test system: Staphylococcus aureus; experiment: Antibacterial activity against methicillin-susceptible Staphylococcus aureus ATCC 25923 after 16 to 18 hrs by broth microdilution method; format: functional; settings: time 16-18 hrs
[6] = test system: Staphylococcus aureus; experiment: Antibacterial activity against methicillin-susceptible Staphylococcus aureus ATCC 13709 after 16 to 18 hrs by broth microdilution method; format: functional; settings: time 16-18 hrs
[7] = test system: Staphylococcus epidermidis; experiment: Antibacterial activity against Staphylococcus epidermidis after 16 to 18 hrs by broth microdilution method; format: functional; settings: time 16-18 hrs
[8] = test system: Escherichia coli; experiment: Antibacterial activity against Escherichia coli ATCC 25922 after 16 to 18 hrs by broth microdilution method; format: functional; settings: time 16-18 hrs
[9] = test system: Klebsiella pneumoniae; experiment: Antibacterial activity against Klebsiella pneumoniae CICC 21611 after 16 to 18 hrs by broth microdilution method; format: functional; settings: time 16-18 hrs
[10] = test system: Acinetobacter baumannii; experiment: Antibacterial activity against Acinetobacter baumannii Bio 34235 after 16 to 18 hrs by broth microdilution method; format: functional; settings: time 16-18 hrs
[11] = test system: Acinetobacter baumannii; experiment: Antibacterial activity against drug-resistant Acinetobacter baumannii Bio 53272 after 16 to 18 hrs by broth microdilution method; format: functional; settings: time 16-18 hrs
[12] = Methemoglobin toxicity in human blood at 500 uM incubated for 6 hrs by MetHb content assay; format: tissue-based
[13] = target: T1, Peptide deformylase (Staphylococcus aureus, UniProt P68826); experiment: Inhibition of Staphylococcus aureus PDF-Ni assessed as enzyme activity incubated for 30 min by fluorescamine method
T1 sequence (P68826 whole entry): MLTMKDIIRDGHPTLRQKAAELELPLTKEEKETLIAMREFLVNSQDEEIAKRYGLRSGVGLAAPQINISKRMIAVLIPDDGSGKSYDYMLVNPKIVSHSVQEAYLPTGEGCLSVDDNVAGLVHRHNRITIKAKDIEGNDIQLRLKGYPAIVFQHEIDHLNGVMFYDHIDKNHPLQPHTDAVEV

[14] = target: T2, Peptide deformylase (Escherichia coli, UniProt Q9JN24); experiment: Inhibition of Escherichia coli PDF-Ni assessed as enzyme activity incubated for 30 min by fluorescamine method
T2 sequence (Q9JN24 whole entry): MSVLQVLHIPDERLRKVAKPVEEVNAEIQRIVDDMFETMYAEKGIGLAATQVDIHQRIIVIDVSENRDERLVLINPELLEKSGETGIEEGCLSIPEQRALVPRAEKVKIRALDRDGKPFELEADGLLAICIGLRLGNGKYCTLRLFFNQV

[15] = Cytotoxicity against human HEK293T cells assessed as cell viability at 3.125 to 100 uM incubated for 24 hrs by MTT assay; format: toxicity, cell-based, HEK-293T
[16] = Cytotoxicity against human HeLa cells assessed as cell viability at 3.125 to 100 uM incubated for 24 hrs by MTT assay; format: toxicity, cell-based
[17] = test system: Acinetobacter baumannii; experiment: Antibacterial activity against Acinetobacter baumannii Bio 53272 after 16 to 18 hrs by broth microdilution method; format: functional; settings: time 16-18 hrs
[18] = test system: Acinetobacter baumannii; experiment: Antibacterial activity against Acinetobacter baumannii Bio 24253 after 16 to 18 hrs by broth microdilution method; format: functional; settings: time 16-18 hrs
[19] = test system: Acinetobacter baumannii; experiment: Antibacterial activity against Acinetobacter baumannii Bio 53250 after 16 to 18 hrs by broth microdilution method; format: functional; settings: time 16-18 hrs
[20] = test system: Acinetobacter baumannii; experiment: Antibacterial activity against Acinetobacter baumannii Bio 69680 after 16 to 18 hrs by broth microdilution method; format: functional; settings: time 16-18 hrs
[21] = test system: Acinetobacter baumannii; experiment: Antibacterial activity against Acinetobacter baumannii Bio 120982 after 16 to 18 hrs by broth microdilution method; format: functional; settings: time 16-18 hrs
[22] = test system: Klebsiella pneumoniae; experiment: Antibacterial activity against Klebsiella pneumoniae CICC 21092 after 16 to 18 hrs by broth microdilution method; format: functional; settings: time 16-18 hrs
[23] = test system: Klebsiella pneumoniae; experiment: Antibacterial activity against Klebsiella pneumoniae CICC 20093 after 16 to 18 hrs by broth microdilution method; format: functional; settings: time 16-18 hrs
[24] = test system: Escherichia coli; experiment: Antibacterial activity against Escherichia coli ATCC 10668 after 16 to 18 hrs by broth microdilution method; format: functional; settings: time 16-18 hrs
[25] = test system: Escherichia coli; experiment: Antibacterial activity against Escherichia coli ATCC 10663 after 16 to 18 hrs by broth microdilution method; format: functional; settings: time 16-18 hrs
[26] = test system: Escherichia coli; experiment: Antibacterial activity against Escherichia coli ATCC 10661 after 16 to 18 hrs by broth microdilution method; format: functional; settings: time 16-18 hrs
[27] = Aqueous solubility of compound at 0.9% aqueous NaCl solution incubated for 2 hrs by UV spectrophotometry analysis; format: physicochemical

CCCC[C@H](CN(O)C=O)C(=O)N1CCC[C@H]1c1nnc(-c2nccs2)s1
MIC [1]: 0.25 µg/mL (≈ 0.61 µM)
MIC [2]: 0.25 µg/mL (≈ 0.61 µM)
MIC [3]: 1 µg/mL (≈ 2.44 µM)
MIC [4]: 2 µg/mL (≈ 4.88 µM)
MIC [5]: 1 µg/mL (≈ 2.44 µM)
MIC [6]: 0.5 µg/mL (≈ 1.22 µM)
MIC [7]: 0.25 µg/mL (≈ 0.61 µM)
MIC [8]: > 16 µg/mL
MIC [9]: > 16 µg/mL
MIC [10]: 16 µg/mL (≈ 39.1 µM)
MIC [11]: 8 µg/mL (≈ 19.5 µM)
Activity [12]: Toxic

CCCC[C@H](CN(O)C=O)C(=O)N1CCC[C@H]1c1nnc(-c2ccc(C)s2)s1
MIC [1]: 0.25 µg/mL (≈ 0.592 µM)
MIC [2]: 0.25 µg/mL (≈ 0.592 µM)
MIC [3]: 2 µg/mL (≈ 4.73 µM)
MIC [4]: 2 µg/mL (≈ 4.73 µM)
MIC [5]: 4 µg/mL (≈ 9.47 µM)
MIC [6]: 2 µg/mL (≈ 4.73 µM)
MIC [7]: 1 µg/mL (≈ 2.37 µM)
MIC [8]: 64 µg/mL (≈ 151 µM)
MIC [9]: 32 µg/mL (≈ 75.7 µM)
MIC [10]: 32 µg/mL (≈ 75.7 µM)
MIC [11]: 16 µg/mL (≈ 37.9 µM)
IC50 [13]: 0.0074 µM
IC50 [14]: 0.0985 µM

CCCC[C@H](CN(O)C=O)C(=O)N1CCC[C@H]1c1nnc(-c2ccc(Cl)s2)s1
MIC [1]: 0.25 µg/mL (≈ 0.564 µM)
MIC [2]: 0.25 µg/mL (≈ 0.564 µM)
MIC [3]: 1 µg/mL (≈ 2.26 µM)
MIC [4]: 1 µg/mL (≈ 2.26 µM)
MIC [5]: 1 µg/mL (≈ 2.26 µM)
MIC [6]: 1 µg/mL (≈ 2.26 µM)
MIC [7]: 0.5 µg/mL (≈ 1.13 µM)
MIC [8]: 32 µg/mL (≈ 72.2 µM)
MIC [9]: 32 µg/mL (≈ 72.2 µM)
MIC [10]: 32 µg/mL (≈ 72.2 µM)
MIC [11]: 16 µg/mL (≈ 36.1 µM)
IC50 at 24 h [15]: > 100 µM
IC50 at 24 h [16]: > 100 µM
Activity [12]: Toxic

CCCC[C@H](CN(O)C=O)C(=O)N1CCC[C@H]1C(=O)Nc1ccc(F)c[n+]1[O-]
MIC [1]: 0.125 µg/mL (≈ 0.315 µM)
MIC [2]: 0.25 µg/mL (≈ 0.631 µM)
MIC [3]: 0.5 µg/mL (≈ 1.26 µM)
MIC [4]: 0.25 µg/mL (≈ 0.631 µM)
MIC [5]: 0.5 µg/mL (≈ 1.26 µM)
MIC [6]: 0.25 µg/mL (≈ 0.631 µM)
MIC [7]: 0.25 µg/mL (≈ 0.631 µM)
MIC [8]: 32 µg/mL (≈ 80.7 µM)
MIC [9]: 64 µg/mL (≈ 161 µM)
MIC [10]: 32 µg/mL (≈ 80.7 µM)
MIC [11]: > 16 µg/mL
MIC [17]: 32 µg/mL (≈ 80.7 µM)
MIC [18]: 32 µg/mL (≈ 80.7 µM)
MIC [19]: 32 µg/mL (≈ 80.7 µM)
MIC [20]: 16 µg/mL (≈ 40.4 µM)
MIC [21]: 16 µg/mL (≈ 40.4 µM)
MIC [22]: 64 µg/mL (≈ 161 µM)
MIC [23]: 64 µg/mL (≈ 161 µM)
MIC [24]: 32 µg/mL (≈ 80.7 µM)
MIC [25]: 16 µg/mL (≈ 40.4 µM)
MIC [26]: 8 µg/mL (≈ 20.2 µM)
IC50 at 24 h [15]: > 100 µM
IC50 at 24 h [16]: > 100 µM
solubility at 2 h [27]: 1650 µg/mL (≈ 4160 µM)
Activity [12]: Toxic
